Data published in patent US8227604B2, “Hybrid 2-aminotetralin and aryl-substituted piperazine compounds and their use in altering CNS activity” (Wayne State University, priority 2001, dated 2012).

Legend:
[1] = target: T1, 5HT2A receptor (Homo sapiens, UniProt P28223); assay: Binding affinity at cloned human 5HT2A receptor, [3H]Ketanserin
T1 construct: expressed in transfected cells

[2] = target: T2, 5HT2C receptor (Homo sapiens, UniProt P28335); assay: Binding affinity at cloned human 5HT2C receptor, [3H]Mesulergine
T2 construct: expressed in transfected cells
T2 sequence (P28335 33-458): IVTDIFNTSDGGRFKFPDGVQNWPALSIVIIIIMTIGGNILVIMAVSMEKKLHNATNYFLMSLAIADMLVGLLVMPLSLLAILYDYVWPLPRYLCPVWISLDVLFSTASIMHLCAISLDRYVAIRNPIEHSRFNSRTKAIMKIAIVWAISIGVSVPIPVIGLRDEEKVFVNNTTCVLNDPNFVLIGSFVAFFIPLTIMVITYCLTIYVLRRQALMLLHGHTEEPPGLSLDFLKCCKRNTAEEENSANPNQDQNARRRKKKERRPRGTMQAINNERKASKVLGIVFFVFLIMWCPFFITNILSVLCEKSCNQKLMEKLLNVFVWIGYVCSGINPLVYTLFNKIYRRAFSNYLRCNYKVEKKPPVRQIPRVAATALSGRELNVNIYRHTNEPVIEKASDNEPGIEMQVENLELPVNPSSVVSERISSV

[3] = target: T3, 5HT1A receptor (Homo sapiens, UniProt P08908); assay: Binding affinity at cloned human 5HT1A receptor, [3H]8-OH-DPAT (HA7 cells)
T3 construct: expressed in transfected cells; host or cells: HA7 cells
T3 sequence (P08908 1-422): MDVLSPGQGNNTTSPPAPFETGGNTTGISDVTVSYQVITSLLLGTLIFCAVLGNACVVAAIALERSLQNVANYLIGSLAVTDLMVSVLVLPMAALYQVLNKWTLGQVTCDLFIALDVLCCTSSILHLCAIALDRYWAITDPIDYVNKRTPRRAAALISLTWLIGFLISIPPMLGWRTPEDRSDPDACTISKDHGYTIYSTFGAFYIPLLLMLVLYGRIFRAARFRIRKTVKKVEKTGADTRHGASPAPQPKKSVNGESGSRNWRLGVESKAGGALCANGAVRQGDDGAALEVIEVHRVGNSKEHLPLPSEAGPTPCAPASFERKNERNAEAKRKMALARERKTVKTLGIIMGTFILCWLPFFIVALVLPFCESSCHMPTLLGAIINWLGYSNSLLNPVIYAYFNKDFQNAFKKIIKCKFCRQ
Procedure: HA7 cells (human receptor) are grown to confluence in DMEM containing 10% fetal calf serum, 0.05% penicillin-streptomycin (pen-strep), and […] of G418. The cells are scraped from the 100 by 20 mm plates and centrifuged at 500·G for 5 min. The pellet is homogenized in 50 mM Tris-HCl, pH 7.7, with a polytron, centrifuged at 27,000·G and resuspended at 10 mg protein/ml in the same buffer. The homogenate is then stored at −70° C. in 1-ml aliquots.
The thawed cells are washed once and resuspended at 10 mg protein/80 ml in 25 mM Tris-HCl containing 100 μM of ascorbic acid and 10 mM of nialamide at pH 7.4. The assay is performed in triplicate in a 96-well plate. To 100 μl of [^3H]8-OH-DPAT (0.5 nM final conc), […] of test compound or buffer and 0.8 ml of cell homogenate (0.1 mg protein/well) is added to each well by a Tomtec Quadra 96. Nonspecific binding is defined using 1 μM dihydroergotamine. The plates are incubated at 25° C. for 60 min, then filtered. The incubation is terminated by rapid filtration through glass fiber filter paper on a Tomtec cell harvester. The filters are washed four times with ice-cold 50 mM Tris-HCl, pH 7.7, dried overnight, bagged with 10 ml scintillation cocktail before counting for 2 min. on a Wallac Betaplate 1205 liquid scintillation counter.

[4] = target: D3 receptor (Homo sapiens, UniProt P35462); assay: Inhibition constants for binding to cloned D3 receptor expressed in HEK cells, [3H]spiperone; settings: D3 expressed in HEK cells
Procedure: Inhibition constants for binding to cloned D2L and D3 receptors expressed in HEK cells by displacing [^3H] spiperone were measured for several compounds.

T1 sequence (P28223 whole entry): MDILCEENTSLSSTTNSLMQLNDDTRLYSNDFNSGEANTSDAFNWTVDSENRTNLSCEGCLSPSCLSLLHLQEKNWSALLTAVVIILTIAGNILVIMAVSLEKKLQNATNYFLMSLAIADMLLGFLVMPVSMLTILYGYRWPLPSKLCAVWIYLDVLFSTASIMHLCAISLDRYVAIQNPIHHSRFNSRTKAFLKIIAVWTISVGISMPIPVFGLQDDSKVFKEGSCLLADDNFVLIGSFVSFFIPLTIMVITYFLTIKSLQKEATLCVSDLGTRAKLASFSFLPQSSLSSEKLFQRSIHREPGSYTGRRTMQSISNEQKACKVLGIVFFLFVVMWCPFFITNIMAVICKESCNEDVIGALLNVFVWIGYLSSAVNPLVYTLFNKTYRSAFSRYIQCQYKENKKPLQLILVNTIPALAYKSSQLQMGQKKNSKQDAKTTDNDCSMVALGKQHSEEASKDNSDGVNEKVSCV
D3 receptor, sequence (P35462 whole entry): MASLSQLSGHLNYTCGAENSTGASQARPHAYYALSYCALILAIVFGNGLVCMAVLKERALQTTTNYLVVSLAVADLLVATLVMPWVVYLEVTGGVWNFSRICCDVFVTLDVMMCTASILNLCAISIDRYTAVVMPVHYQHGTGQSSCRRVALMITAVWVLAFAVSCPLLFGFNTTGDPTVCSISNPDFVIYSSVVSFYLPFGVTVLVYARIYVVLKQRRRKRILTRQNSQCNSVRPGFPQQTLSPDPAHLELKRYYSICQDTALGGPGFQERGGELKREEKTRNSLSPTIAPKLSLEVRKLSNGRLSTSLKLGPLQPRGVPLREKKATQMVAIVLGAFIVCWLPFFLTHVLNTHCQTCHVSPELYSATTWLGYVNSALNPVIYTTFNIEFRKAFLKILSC

N#CCCCN(CCCCN1CCN(c2ccccc2)CC1)C1CCc2ccc(O)cc2C1 (centres unmarked) [Compound 8, 7-Hydroxy-2-[N-butyonitrile-(N-(4-phenylpiperazin-1-yl)-butyl)amino]tetralin]
Ki [1]: 701 ± 16.8 nM
Ki [2]: > 10000 nM
Ki [3]: 88.31 ± 0.4 nM

O=C(NCCCCN(CCCCN1CCN(c2ccccc2)CC1)C1CCc2ccc(O)cc2C1)c1ccccc1 (centres unmarked) [Compound 10a, 7-Hydroxyl-2-[N-(4-benzoylaminobutyl)-(N-(4-phenylpiperazin-1-yl)-butyl)amino]tetralin]
melting point: 70 to 71 °C
Ki [1]: 1230 ± 217 nM
Ki [2]: > 10000 nM
Ki [3]: 171 ± 32.2 nM

O=C(NCCN(CCCCN1CCN(c2ccccc2)CC1)C1CCc2ccc(O)cc2C1)c1ccccc1 (centres unmarked) [Compound 10b, 7-Hydroxy-2-[N-(2-benzoylamino)ethyl-(N-(4-phenylpiperazin-1-yl)-butyl)amino]tetralin]
Ki [1]: 287 ± 50.2 nM
Ki [2]: > 10000 nM
Ki [3]: 164 ± 27.5 nM

CCCN(CCCCN1CCN(c2ccccc2)CC1)C1CCc2ccc(O)cc2C1 (centres unmarked) [Compound 15b, 7-Hydroxyl-2-[N-propyl-(N-(4-phenylpiperazin-1-yl)-butyl)amino]tetralin]
Ki [1]: 1780 ± 614 nM
Ki [4]: 3.79 ± 0.4 nM
Ki [2]: > 10000 nM
Ki [3]: 18.5 ± 2.46 nM
